The test deals with T1, Carboxypeptidase A1 (Homo sapiens, UniProt P15085).
T1 sequence (P15085 whole entry): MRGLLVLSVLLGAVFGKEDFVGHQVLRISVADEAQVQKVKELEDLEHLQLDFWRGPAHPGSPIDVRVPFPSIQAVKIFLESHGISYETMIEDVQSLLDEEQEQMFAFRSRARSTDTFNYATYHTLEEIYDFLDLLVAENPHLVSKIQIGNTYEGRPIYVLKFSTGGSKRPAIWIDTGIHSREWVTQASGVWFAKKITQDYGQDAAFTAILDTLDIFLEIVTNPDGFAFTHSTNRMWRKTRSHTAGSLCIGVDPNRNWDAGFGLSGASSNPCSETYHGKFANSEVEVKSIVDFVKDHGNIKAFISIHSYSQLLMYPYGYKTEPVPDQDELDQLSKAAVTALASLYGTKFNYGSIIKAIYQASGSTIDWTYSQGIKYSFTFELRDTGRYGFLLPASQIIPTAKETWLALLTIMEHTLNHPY
Kind of test: Compound was tested for its inhibitory activity against carboxypeptidase A (CPA).
Usually Ki stands for a measure of affinity in units of concentration, obtained from inhibition or displacement. Low readings indicate a stronger hold on the target, high ones a looser hold on the target. `O=C(O)C(Cc1ccccc1)CN(O)C(=O)c1ccccc1` (centres undefined) yielded a Ki of 6.5 µM.

Regarding `O=C(O)C(Cc1ccccc1)CN(O)C(=O)CCCc1ccccc1` (centres undefined), the Ki was found to be 1.16 µM.

For the compound `O=C(O)C(Cc1ccccc1)CN(O)C(=O)Cc1ccccc1` (centres undefined), the affinity, expressed as Ki, was 0.32 µM.

In turn, `O=CN(O)CC(Cc1ccccc1)C(=O)O` (centres undefined) yielded a Ki of 0.98 µM.

Turning to `O=CN(O)C[C@@H](Cc1ccccc1)C(=O)O`, affinity was put at a Ki of 0.56 µM.

Turning to `CC(=O)N(O)CC(Cc1ccccc1)C(=O)O` (centres undefined), the Ki was 5.9 µM.

Compound `O=C(O)C(Cc1ccccc1)CN(O)C(=O)CCc1ccccc1` (centres undefined) returned a Ki of 1.2 µM.

For the compound `O=CN(O)C[C@H](Cc1ccccc1)C(=O)O`, the Ki worked out at 4.95 µM.

Consider `CCC(=O)N(O)CC(Cc1ccccc1)C(=O)O` (centres undefined), for which the inhibition constant (Ki) stood at 5.82 µM.

Source of the values: ChEMBL document CHEMBL1132056, “First hydroxamate inhibitors for carboxypeptidase A. N-acyl-N-hydroxy-beta-phenylalanines” (Bioorg Med Chem Lett, 1999).
